Experiments:
[1] = tested on: sulfolipids synthesized in E. histolytica trophozoites; assay: Metabolic labeling by [35S]-labeled sulfate, sulfolipid synthesis; assay type: cell-based, Entamoeba histolytica; details: 6 h treatment; A-D-11, A-H-11 6.25-100 μM, E-H-05 0.5-8 μM
Method: Metabolic labeling of E. histolytica trophozoites by [^35S]-labeled sulfate was performed essentially as described previously with slight modification. […] Each 10 mM stock solution (in DMSO) of the three commercially sourced compounds was serially diluted by 2-fold decrements with DMSO. The resulting diluted solutions were then added to 0.75 ml cell suspension in BI-S-33 medium at 1/100 (vol/vol). […] Note that DMSO was used as a solvent control at 1%, which was the DMSO concentration in all samples analyzed. [^35S]-labeled sulfate (45 μCi) was added 4 h after the start of treatments and labeled cells were harvested at 6 h. […] Each spot on the TLC plates was quantified using a Fuji imaging analyzer and Multi Gauge 2.2 software (FLA-7000; Fujifilm, Japan). The total cell protein was estimated using a Pierce BCA protein assay kit (Thermo Scientific, Rockford, IL, USA).

[2] = tested on: E. invadens cyst formation; assay: E. invadens cyst formation (encystation) assay (flow cytometry); assay type: cell-based, Entamoeba invadens; details: compound added at 48 h post-induction (48–72 h)
Method: E. histolytica trophozoite proliferation and E. invadens cyst formation assays were performed essentially as described in [18] except that in addition to 0–72 and 48–72 h cyst formation assays, 0–96 and 0–120 h, and 48–96 and 48–120 h assays were also performed.

[3] = tested on: E. invadens cyst formation; design: method as in PMID 30087858; details: ref [18], cited from earlier work
[4] = target: T1, rHsAPSK (recombinant APSK domain of HsPAPSS1) (Homo sapiens, UniProt O43252); assay: 96-well plate-based in vitro APSK activity assay (coupling assay, NADH decrease); assay type: biochemical; details: 10 μM compound, 1% DMSO
T1 construct: APSK domains of HsPAPSS1 (Ala^25—Pro^227) and -2 (Ser^15—Pro^217); His tag (pCold-I vector); made in house; host or cells: E. coli BL21(DE3)
T1 sequence (O43252 25-227): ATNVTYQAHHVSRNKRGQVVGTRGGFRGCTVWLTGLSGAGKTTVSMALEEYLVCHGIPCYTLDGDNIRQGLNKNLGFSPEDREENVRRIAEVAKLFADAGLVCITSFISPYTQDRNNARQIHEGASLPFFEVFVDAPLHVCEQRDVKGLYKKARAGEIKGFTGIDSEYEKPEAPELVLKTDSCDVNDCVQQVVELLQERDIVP
Method: (§1) A coupling assay to measure APSK activity was performed as described except a 96-well plate was used. Briefly, each well contained 100 μL reaction mixture, which consisted of 90 μL coupling solution and 10 μL of either compound solution (see below) or 10% DMSO. […] The coupling solution was 100 mM Tris/HCl (pH 8.0), 1 mM MgCl2, 1 mM KCl, 5 mM Mg2ATP, 1 mM NADH, 1 mM PEP, 1 U NP1, 3.5 U PK, 5.0 U LDH, and APSK (≤3 μL). […] As controls, in place of purified APSK solution (rEhAPSK or rHsAPSK), 3 μL of a blank [50 mM Tris/HCl buffer (pH 8.0)], a solvent (elution buffer), a mock (rEhSF2), or denatured APSK suspensions obtained by heat-treatment, were added to the coupling solution. The activity of each sample was calculated after removing the baseline value of the blank control.
(§2) For the inhibition assay, 2 μL of each stock solution, which were distributed in a 96-well plate, were transferred to a new plate to make a replicate. After adding 18 μL deionized water to each well and mixing, 10 μL of each diluted solution (100 μM compound solution) was again transferred into a new 96-well plate to make a replicate. Then 90 μL of the coupling solution prepared above was dispensed into each well containing the previously added 10 μL of 100 μM compound solution. As a solvent control, 10% DMSO solution (vol/vol-deionized water) was used in place of compound solution. The final concentrations of each compound and DMSO in a well were 10 μM and 1% (vol/vol), respectively. The assays were performed independently three times, and data are shown as the mean with SD.
(§3) In all assays, prepared mixtures in a plate were mixed on a vibrating table equipped with either an EnVision or ARVO plate reader (PerkinElmer) before starting the reaction.

[5] = tested on: E. histolytica trophozoite; design: method as in PMID 30087858; details: ref [18], cited from earlier work
recombinant EhTrxR = tested on: recombinant EhTrxR; design: method as in PMID 22610278, PMID 26876147; details: ref [19], [59]; cited from earlier work
[6] = tested on: Human foreskin fibroblast (HFF) cells; assay: WST-1-based cytotoxicity assay
Method: Human foreskin fibroblast (HFF) cells (purchased from ATCC) were routinely maintained in DMEM supplemented with 10% fetal bovine serum, 100 units/ml penicillin, […] and 1% GlutaMAX™-I (Thermo Fisher Scientific, Waltham, MA). A WST-1-based cytotoxicity assay was performed as previously described. In detail, HFF cells were plated at 1.0×10^4 cells/100 μL medium in each well of a 96-well culture plate, and incubated overnight at 37°C in a 5% CO2 atmosphere to allow cells to adhere to the wells. […] Numbers of viable cells were then assessed using the Premix WST-1 Cell Proliferation Assay System (Takara). […] DMSO was added at 1% as a negative control whereas ionomycin was added at 30 μM as a positive control. As a blank, the above culture medium was used in place of the solutions added.

rEhAPSK = rEhAPSK (Entamoeba histolytica, UniProt C4LUW9); assay: 96-well plate-based in vitro APSK activity assay (coupling assay, NADH decrease); assay type: biochemical; details: 10 μM compound, 1% DMSO
Method: as §1, §2
One millimolar stock solutions used were either thawed in a replicate (96-well plate) prepared in [18] […] Subsequently, 3.4 μL of the 1 mM and each diluted stock solution were dispensed into wells of a 96-well culture plate, containing 30.6 μL deionized water and mixed well by pipetting. Ten microliters of all resulting solutions were then dispensed into wells of a 96-well plate to make triplicates and then used as described for the above inhibition assay. 10% DMSO solution was used as an inhibitor-free control. Note that the final DMSO concentration in any well was 1% (vol/vol).
as §3

rEhAPSK, sequence (C4LUW9 entry or part of it): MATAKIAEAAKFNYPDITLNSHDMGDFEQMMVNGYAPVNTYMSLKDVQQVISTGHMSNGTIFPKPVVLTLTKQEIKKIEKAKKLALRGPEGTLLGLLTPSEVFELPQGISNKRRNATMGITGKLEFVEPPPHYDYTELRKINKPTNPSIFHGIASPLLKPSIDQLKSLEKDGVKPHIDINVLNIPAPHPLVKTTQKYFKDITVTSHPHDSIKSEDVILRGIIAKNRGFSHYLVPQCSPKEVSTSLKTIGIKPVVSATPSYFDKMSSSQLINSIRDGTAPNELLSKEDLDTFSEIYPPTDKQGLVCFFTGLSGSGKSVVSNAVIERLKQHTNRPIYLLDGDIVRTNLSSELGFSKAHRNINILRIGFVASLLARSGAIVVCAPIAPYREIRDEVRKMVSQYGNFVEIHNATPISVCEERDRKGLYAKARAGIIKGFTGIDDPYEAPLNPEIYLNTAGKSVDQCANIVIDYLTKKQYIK

auranofin [E-H-05, reference compound]
Amount of sulfolipids synthesized [1]: dose-dependently reduced the amount of sulfolipids synthesized
Number of cysts formed at 72 h [2]: did not affected the number of cyst formed at 72 h
Effect on cyst formation ([3]; 10 μM): negative effects
IC50 ([3]; average ± SD): 1730 ± 700 nM
Inhibition of rHsAPSK activity [4]: none showed any inhibitory activity against HsAPSK
Effect on trophozoite proliferation ([5]; 10 μM): negative effects
IC50 ([5]; average ± SD, read-out: Trophozoite proliferation IC50): 650 ± 180 nM
IC50 (recombinant EhTrxR): 400 nM
Number of viable HFF cells relative to 1% DMSO control (set as 100%) ([6]; 10 μM, 48 h): < 10%
IC50 ([6]; read-out: Cytotoxicity (HFF) IC50, 48 h exposure, WST-1): 4 ± 1.4 µM
Inhibition of rEhAPSK activity (rEhAPSK): reproducibly inhibited rEhAPSK activity

— article PMC6715247 (PLoS Neglected Tropical Diseases, 2019)
